The results in this text go back to patent US20260083864A1, “CONTRAST AGENTS FOR USE IN DIAGNOSTIC COMPUTED TOMOGRAPHY IMAGING” (Bayer Aktiengesellschaft, priority 2022, published 2026).

In general, Solubility refers to the dissolved amount per volume that the medium holds. The low end stands for little dissolved substance, the high end for much dissolved substance.

Data set [1] can be described thus: Water solubility in aqueous buffer. As for the experimental part: The solid compounds were added stepwise to the buffer solution. More substance is added once all the suspended material is dissolved until an equilibrium between undissolved and dissolved substance is reached. The suspension was mixed using a shaker (Heidolph Reax 2000) and treated 5 min in an ultrasound bath (Bandelin, Sonorex Super RK255H).

Data set [2] is described as follows: Relaxivity measurements at 1.41 T in water. Conditions: 37° C., normalized to Gd. In kind it is physicochemical. As for the experimental part: Relaxivity measurements at 1.41 T were performed using a MiniSpec mq60 spectrometer (Bruker Analytik, Karlsruhe, Germany) operating at a resonance frequency of 60 MHz and a temperature of 37° C. The T1 relaxation times were determined using the standard inversion recovery (IR) method with a fixed relaxation delay of at least 5×T1. The variable inversion time (TI) was calculated automatically by the standard software of the MiniSpec mq60 (8 steps). The T2 measurements were performed by using a Carr-Purcell-Meiboom-Gill (CPMG) pulse sequence, applying a relaxation delay of at least 5×T1.
Each relaxivity measurement was performed using three different Gd concentrations (3 concentrations between 0.05 and 2 mM). […] Human plasma preparation: For each experiment fresh blood was taken from a volunteer using 10 mL citrate-tubes (Sarstedt S-Monovette 02.1067.001, 10 mL, Citrate). The 10 mL citrate-tubes were carefully inverted 10 times to mix blood and anticoagulant and centrifuged for 15 min at 1811 g at RT (Eppendorf, Centrifuge 5810R).
(§1) The relaxivities n (where i=1, 2) were calculated based on the measured relaxation rates Ri in water and plasma: […]

A short description of data set [3]: Relaxivity measurements at 1.41 T in human plasma. Conditions: 37° C., normalized to Gd. The data set is classed as physicochemical. As for the experimental part: The T1 relaxation times were determined using the standard inversion recovery (IR) method with a fixed relaxation delay of at least 5×T1. The variable inversion time (TI) was calculated automatically by the standard software of the MiniSpec mq60 (8 steps). The T2 measurements were performed by using a Carr-Purcell-Meiboom-Gill (CPMG) pulse sequence, applying a relaxation delay of at least 5×T1.
Each relaxivity measurement was performed using three different Gd concentrations (3 concentrations between 0.05 and 2 mM).
as §1

The target of another data set is T1, OATP1B1 (Homo sapiens, UniProt Q9Y6L6).
T1 sequence (Q9Y6L6 1-691): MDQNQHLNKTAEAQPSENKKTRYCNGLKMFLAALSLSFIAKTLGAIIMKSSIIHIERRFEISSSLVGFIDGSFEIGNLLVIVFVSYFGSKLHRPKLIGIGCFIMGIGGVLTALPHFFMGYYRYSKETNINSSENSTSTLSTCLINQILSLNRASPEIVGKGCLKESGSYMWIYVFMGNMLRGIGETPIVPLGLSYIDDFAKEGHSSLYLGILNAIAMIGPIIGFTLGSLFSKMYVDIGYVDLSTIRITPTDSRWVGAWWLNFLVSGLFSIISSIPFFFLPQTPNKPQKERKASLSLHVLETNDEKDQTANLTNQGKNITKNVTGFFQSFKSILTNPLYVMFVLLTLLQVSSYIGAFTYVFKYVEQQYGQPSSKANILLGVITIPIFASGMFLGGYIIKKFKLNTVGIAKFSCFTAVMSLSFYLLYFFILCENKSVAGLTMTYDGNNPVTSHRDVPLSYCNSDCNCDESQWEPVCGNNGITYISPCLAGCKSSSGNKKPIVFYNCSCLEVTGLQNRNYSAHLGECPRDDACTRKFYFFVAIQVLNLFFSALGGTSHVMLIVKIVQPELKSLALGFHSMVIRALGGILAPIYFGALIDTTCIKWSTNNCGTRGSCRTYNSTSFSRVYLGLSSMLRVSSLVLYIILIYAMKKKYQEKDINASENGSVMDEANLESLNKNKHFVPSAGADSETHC
The data set can be described thus: Uptake into stable transfected OATP1B1 HEK 293 cells. The data set is classed as cell-based. The conditions noted are these: for Inhibition Rifampicine: uptake into OATP1B1-HEK 293 cells. As for the experimental part: (§2) Cryopreserved cells were shortly thawed in water bath and diluted in 10 mL warm culture medium (37° C.). After medium change the cells were grown for 3d in a 25 cm^2 cell culture flask. After 3 to 5d the cells were transferred into 75 cm^2 flasks. […] All test items were prepared in transport buffer at a final concentration of 100 M from stock solutions (180 to 500 mM concentration). The OATP1B1 HEK 293 cells were incubated with test solutions (test item in transport buffer 500 L) for 40 min on a thermoshaker without shaking (PHMP, Fa. Grant Bio). Triplicates were performed for each test item. After incubation the cells were washed with 2 mL of cold PBS (+) buffer (Dulbeccos PBS+, Fa. Gibco). […] As a reference standard Gd-EOB-DTPA (gadoxetate) is used in the same well plate.

The target in another data set is T2, OATP1B3 (Homo sapiens, UniProt Q9NPD5).
T2 sequence (Q9NPD5 1-702): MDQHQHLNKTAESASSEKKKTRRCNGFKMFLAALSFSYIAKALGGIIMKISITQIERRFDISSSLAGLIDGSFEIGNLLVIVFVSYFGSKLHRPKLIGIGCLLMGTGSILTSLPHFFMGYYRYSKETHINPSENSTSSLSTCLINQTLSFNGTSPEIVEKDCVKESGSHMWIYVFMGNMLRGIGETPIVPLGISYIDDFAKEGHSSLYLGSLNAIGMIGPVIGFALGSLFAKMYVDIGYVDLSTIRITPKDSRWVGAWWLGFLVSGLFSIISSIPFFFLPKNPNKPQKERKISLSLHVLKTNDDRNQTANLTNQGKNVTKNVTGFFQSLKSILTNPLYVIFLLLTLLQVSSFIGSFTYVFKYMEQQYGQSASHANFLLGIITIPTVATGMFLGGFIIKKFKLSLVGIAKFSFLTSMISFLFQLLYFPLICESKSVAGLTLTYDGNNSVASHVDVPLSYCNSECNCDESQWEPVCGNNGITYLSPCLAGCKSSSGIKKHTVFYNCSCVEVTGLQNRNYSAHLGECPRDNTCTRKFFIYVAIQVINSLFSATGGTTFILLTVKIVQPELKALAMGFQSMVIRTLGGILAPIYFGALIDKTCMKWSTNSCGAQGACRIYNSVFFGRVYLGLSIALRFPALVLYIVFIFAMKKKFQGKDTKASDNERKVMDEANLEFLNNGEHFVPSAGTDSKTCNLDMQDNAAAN
The data set can be described thus: Uptake into stable transfected OATP1B3 HEK 293 cells. The data set is classed as cell-based. The conditions noted are these: for Inhibition Rifampicine: uptake into OATP1B3-HEK 293 cells. As for the experimental part:
as §2, with “100 µM” for “100 M”, “The OATP1B3” for “The OATP1B1”, “500 μL)” for “500 L)”

The nature of data set [4]: Partition coefficient (log P butanol/buffer). In kind it is physicochemical.
Data set [5] relates to freshly isolated rat hepatocytes. The data set can be described thus: Uptake into freshly isolated rat hepatocytes. Conditions: for Uptake rat hepatocytes: 100 μmol Gd/L, 10 min, 37° C., relative to RC1 (Gd-EOB-DTPA); for Inhibition Rifampicine: rat hepatocyte uptake, test item and Rifampicine 1:1, each 100 μM.
The mark [6] stands for this setting: aqueous buffer 10 mM Tris-HCl, pH 7.4, 20° C.
[7] abbreviates: 1-butanol / 50 mM Tris-HCl, pH 7.4, room temperature.
Where [8] appears, read: 40 min incubation, relative to RC1 (Gd-EOB-DTPA).

For `CCOCCOCCOc1ccc(CCC[C@@H](C(=O)O)N2CCN(C(CO)C(=O)[O-])CCN(C(CO)C(=O)[O-])CCN(C(CO)C(=O)[O-])CC2)cc1.[Gd+3]` (mixture of isomers) [Example 21, gadolinium-2,2′,2″-{10-[(1S)-1-carboxy-4-{4-[2-(2-ethoxyethoxy)ethoxy]phenyl}butyl]-1,4,7,10-tetraazacyclododecane-1,4,7-triyl}tris(3-hydroxypropanoate)], the Solubility in data set [1] (setting [6]) is over 368 mM. In addition, the r1 water in data set [2] came to 5.4 L/mmol/s. The r1 human plasma in data set [3] is 8.5 L/mmol/s. The “Inhibition Rifampicine” value on OATP1B1 is reported as 75 % inhibition; on OATP1B3, 94 % inhibition; in data set [5], 91 % inhibition. For the same compound, the “Log P (partition coefficient butanol/buffer)” value in data set [4] (setting [7]) is reported as −1.03. The Uptake rat hepatocytes in data set [5] is on record as 81 % of RC1.

Take `CCOCCOCCOc1ccc(CCC[C@@H](C(=O)O)N2CCN(C(CCO)C(=O)[O-])CCN(C(CCO)C(=O)[O-])CCN(C(CCO)C(=O)[O-])CC2)cc1.[Gd+3]` (mixture of isomers) [Example 36, gadolinium-2,2′-{4-[(1S)-1-carboxy-4-{4-[2-(2-ethoxyethoxy)ethoxy]phenyl}butyl]-10-[1-carboxylato-3-hydroxypropyl]-1,4,7,10-tetraazacyclododecane-1,7-diyl}bis(4-hydroxybutanoate)]: the Solubility in data set [1] (pH 7.4) was 85 mM. For the same compound, the r1 water in data set [2] is 6.1 L/mmol/s. This compound also had a r1 human plasma in data set [3] of 8.5 L/mmol/s. The “Log P (partition coefficient butanol/buffer)” value in data set [4] (pH 7.4) was −1.08.

Regarding `CCOCCOCCOc1ccc(CC(C(=O)O)N2CCN(CC(=O)[O-])CCN(C(C)C(=O)[O-])CCN(CC(=O)[O-])CC2)cc1.[Gd+3]` (single isomer, unassigned) [Example 5, gadolinium 2-[7-(1-carboxy-2-{4-[2-(2-ethoxyethoxy)ethoxy]phenyl}ethyl)-4,10-bis(carboxylatomethyl)-1,4,7,10-tetraazacyclododecan-1-yl]propanoate], in data set [1] (setting [6]), the Solubility is over 59 mM. The r1 water in data set [2] stood at 4.7 L/mmol/s. The same compound registered a r1 human plasma in data set [3] of 6.9 L/mmol/s. Moreover, the “Log P (partition coefficient butanol/buffer)” value in data set [4] (setting [7]) is listed as −1.52. Besides, in data set [5], the Uptake rat hepatocytes was 28 % of RC1 and the “Inhibition Rifampicine” value worked out at 92 % inhibition.

For the compound `CCOCCOCCOCCOc1ccc(C[C@H](C(=O)O)N2CCN(CC(=O)[O-])CCN(CC(=O)[O-])CCN(CC(=O)[O-])CC2)cc1.[Gd+3]` [Example 12, gadolinium 2,2′,2″-{10-[(1R)-1-carboxy-2-(4-{2-[2-(2-ethoxyethoxy)ethoxy]ethoxy}phenyl)ethyl]-1,4,7,10-tetraazacyclododecane-1,4,7-triyl}triacetate], the r1 water in data set [2] amounted to 4.3 L/mmol/s. This compound also came in with a r1 human plasma in data set [3] of 6.6 L/mmol/s. Besides, on OATP1B1 (setting [8]), the “Uptake into OATP1B1-HEK 293 cells” value is 86 % of RC1. Further, the figures for the “Inhibition Rifampicine” value (at OATP1B1; on OATP1B3; in data set [5]) were 0 % inhibition, 87 % inhibition and 97 % inhibition, respectively. The “Uptake into OATP1B3-HEK 293 cells” value on OATP1B3 (setting [8]) is recorded as 24 % of RC1. The “Log P (partition coefficient butanol/buffer)” value in data set [4] (setting [7]) is reported as −1.68. The Uptake rat hepatocytes in data set [5] was 53 % of RC1.

For `CCOCCOCCOc1ccc(CCC[C@@H](C(=O)O)N2CCN([C@@H](CO)C(=O)[O-])CCN([C@H](CO)C(=O)[O-])CCN([C@@H](CO)C(=O)[O-])CC2)cc1.[Gd+3]` [Example 35, gadolinium (2S,2'S)-2,2′-{4-[(1S)-1-carboxy-4-{4-[2-(2-ethoxyethoxy)ethoxy]phenyl}butyl]-10-[(1R)-1-carboxylato-2-hydroxyethyl]-1,4,7,10-tetraazacyclododecane-1,7-diyl}bis(3-hydroxypropanoate)], the Solubility in data set [1] (setting [6]) is over 164 mM. The compound also came in with a r1 water in data set [2] of 5.6 L/mmol/s. This compound gave a r1 human plasma in data set [3] of 8.6 L/mmol/s. Also, the “Inhibition Rifampicine” value on OATP1B1 was determined as 87 % inhibition; on OATP1B3, 98 % inhibition. For the same compound, the “Log P (partition coefficient butanol/buffer)” value in data set [4] (setting [7]) is −1.02.

For `CCOCCOCCOc1ccc(CC(C(=O)O)N2CCN(C(CCO)C(=O)[O-])CCN(C(CCO)C(=O)[O-])CCN(C(CCO)C(=O)[O-])CC2)cc1.[Gd+3]` (stereo not drawn) [Example 37, gadolinium-2,2′-{4-[1-carboxy-2-{4-[2-(2-ethoxyethoxy)ethoxy]phenyl}ethyl]-10-[1-carboxylato-3-hydroxypropyl]-1,4,7,10-tetraazacyclododecane-1,7-diyl}bis(4-hydroxybutanoate)], the Solubility in data set [1] (setting [6]) is 18 mM. Besides, the r1 water in data set [2] stood at 6.4 L/mmol/s. The compound further had a r1 human plasma in data set [3] of 8.4 L/mmol/s. Further, in data set [4] (setting [7]), the “Log P (partition coefficient butanol/buffer)” value is reported as −1.16. Moreover, in data set [5], the Uptake rat hepatocytes was 26 % of RC1 and the “Inhibition Rifampicine” value worked out at 37 % inhibition.
